Measured values reported in PMC8155176, “Reversible modulation of circadian time with chronophotopharmacology” (Nature Communications, 2021).

Key:
U2OS cells = assay: Circadian phase control in U2OS reporter cells; type: cell-based, human
Source text: Hypothetically, a transient change in period will lead to a phase change, consequently providing a relevant approach to jetlag treatment. Therefore, we applied visible-light responsive modulator 9 to control the circadian phase (Fig. 7). The compound was initially irradiated with green light for inactivation (cis-enriched 9, Fig. 7a, timepoint A) and applied to U2OS cells for luminescence rhythm measurement. On the next day, the cells were irradiated with violet light for compound activation or kept in dark (Fig. 7a, timepoint B).
Fig. 7 Circadian phase control using chronophotopharmacology. Green light (λmax = 530 nm)-irradiated compound 9 was applied to U2OS cells at 0 h (A). On the next day (B), the cells were irradiated with violet light (λmax = 400 nm) for 0 min (black and green lines), 10 min (light violet line), or 20 min (dark violet line). After 48 h or 72 h (C), the cells were irradiated with green light (λmax = 530 nm) for 0 min (black line) or 30 min (green, light violet, and dark violet lines). Luminescence rhythm profiles (average of n = 6) are shown in a. […] Luminescence is given in arbitrary units. n = 6 biologically independent samples. […]
Stable U2OS reporter cells harboring Bmal1-dLuc reporter were suspended in phenol red-free culture medium [DMEM (D2902, Sigma) supplemented with 10% fetal bovine serum, 3.5 mg/mL D-glucose, 3.7 mg/mL sodium bicarbonate, 0.29 mg/mL L-glutamine, 100 units/mL penicillin, and 100 µg/mL streptomycin] and plated onto a white, solid-bottom 384-well plates at 30 µL (3000 cells) per well. […] Luminescence was recorded every 100 min in a microplate reader, Infinite M200Pro (Tecan). For the phase control experiments, cellular light irradiation was performed in a dark 32 °C room and luminescence was recorded in a microplate reader Synergy H1 (BioTek) placed in the same room, to avoid possible effect of transient temperature change on the phase. Circadian period and phase were determined from luminescence rhythms by a curve fitting program MultiCycle (Actimetrics). […]

SCN explants = assay: Ex vivo circadian period, SCN explants of Per2::Luc knock-in mice; parameters: species or system mouse; details: 18 µM
Description: Next, we applied the light-dependent period control to the tissue level using explants of Per2::Luc knock-in reporter mice. The mice express PER2-luciferase fusion protein under control of the endogenous Per2 promoter. […] The spleen explants were treated with thermally adapted trans-9, then irradiated with green light (λmax = 530 nm) or kept in dark, and luminescence rhythms were measured (Fig. 6a, b). […] In addition to the peripheral clock in spleen, we investigated the effect of compound 9 on the central clock in the hypothalamic suprachiasmatic nucleus (SCN) that controls behavioral rhythms. […]
Fig. 6 Ex vivo photo-modulation of the circadian period in mouse tissue explants. a–c The spleen explants of the Per2::Luc knock-in reporter mice were applied with 12 µM compound 9 and irradiated with green light (λmax = 530 nm) for 0 min (dark, black) or 30 min (green). Luminescence rhythms were then monitored and shown in a (mean of n = 5 for dark and n = 6 for green light). […] Luminescence is given in arbitrary units. n = 5 biologically independent samples for dark and n = 6 for green light. […] Luminescence rhythms of a representative sample for each condition are shown in d. […]
To harvest the suprachiasmatic nucleus (SCN), Per2::Luc heterozygote neonatal mice at postnatal day four to seven were euthanized. […] Circadian period was calculated by a cosine curve fitting. […]

SMILES: CC(C)n1cnc2c(NCc3ccc(F)c(/N=N/c4c(F)cccc4F)c3F)ncnc21 [Compound 9]
- period after green light reversal (U2OS cells; after time point C): returned to normal
- phase delay compared with dark samples, 48 h condition (U2OS cells; violet light activation, reversed by green light after 48 h): 2 h
- phase delay compared with dark samples, 72 h condition (U2OS cells; violet light activation, reversed by green light after 72 h): 4 h
- period effect of thermally adapted compound (SCN explants; applied on day 4): induced period lengthening
- period effect upon green light irradiation (SCN explants; green light on day 8): reduced
